Source: US11673910B2, “Macrolides with modified desosamine sugars and uses thereof” (Zikani Therapeutics, Inc., priority 2017, dated 2023)
Values after ≈ are worked out from the molar mass of the structure shown.

Columns and labels:
Type in all cases: cell-based
[1] = system: E. coli strain MP-4; assay: Broth dilution MIC determination (CLSI) against E. coli strain MP-4; settings: Escherichia coli, MP4
How it was run: (§1)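 Reported scores reflect MIC ranges, with +++ at or below 4 mg/L, ++ from 8 up to under 32 mg/L, and + at 32 mg/L or higher. The macrolides were tested following CLSI broth dilution procedures.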

[2] = system: K. pneumoniae strain MP-548; assay: Broth dilution MIC determination (CLSI) against K. pneumoniae strain MP-548; settings: Klebsiella pneumoniae, MP548
How it was run: as §1

[3] = system: S. aureus strain MP-12; assay: Broth dilution MIC determination (CLSI) against S. aureus strain MP-12; settings: for MIC: Staphylococcus aureus, MP12, strain MP-12
How it was run: as §1

[4] = system: A. baumannii strain MP-15; assay: Broth dilution MIC determination (CLSI) against A. baumannii strain MP-15; settings: Acinetobacter baumannii, MP15
How it was run: as §1

[5] = system: P. aeruginosa strain MP-3; assay: Broth dilution MIC determination (CLSI) against P. aeruginosa strain MP-3; settings: Pseudomonas aeruginosa, MP3
How it was run: as §1

| SMILES | MIC [1] | MIC [2] | MIC [3] | MIC [4] | MIC [5] | MIC against S. aureus (MP-12) ([3]; strain MP-12) |
| --- | --- | --- | --- | --- | --- | --- |
| CC[C@H]1OC(=O)[C@@](C)(F)C(=O)[C@H](C)[C@@H](O[C@@H]2OC(COC/C=C/c3cncnc3)CC(N(C)C)C2O)[C@](C)(OC)C[C@@H](C)C(=O)[C@H](C)[C@H]2NC(=O)O[C@@]21C (stereo partly drawn) [Compound 105] | ≥ 32 µg/mL | ≥ 32 µg/mL | ≤ 4 µg/mL | ≥ 32 µg/mL | ≥ 32 µg/mL |  |
| CC[C@H]1OC(=O)C(C)C(=O)[C@H](C)[C@@H](O[C@@H]2OC(CNCc3cccc(-c4cncnc4)c3)CC(N(C)C)C2O)[C@](C)(OC)C[C@@H](C)CN[C@H](C)[C@H]2NC(=O)O[C@@]21C (stereo partly drawn) [Compound 20] | ≤ 4 µg/mL | ≥ 32 µg/mL | ≥ 32 µg/mL | ≥ 32 µg/mL | ≥ 32 µg/mL |  |
| CC[C@H]1OC(=O)C(C)C(=O)[C@H](C)[C@@H](OC2OC(CN3CCCCC34CC4)CC(N(C)C)C2O)[C@](C)(OC)C[C@@H](C)CN[C@H](C)[C@H]2NC(=O)O[C@@]21C (stereo partly drawn) [Compound 135, 3-Descladinosyl-3-oxo-6-O-methyl-N9a-desmethyl-11,12-dideoxy-12,11-(oxycarbonylimino)-6′-(4″-azaspiro[2″.5″]octanyl)amino Azithromycin] | ≤ 4 µg/mL | 8 to 32 µg/mL (≈ 11.1 to 44.3 µM) | 8 to 32 µg/mL (≈ 11.1 to 44.3 µM) | ≤ 4 µg/mL | ≥ 32 µg/mL |  |
| CC[C@H]1OC(=O)C(C)C(=O)[C@H](C)[C@@H](O[C@@H]2OC(CNc3cccnc3)CC(N(C)C)C2O)[C@](C)(OC)C[C@@H](C)CN[C@H](C)[C@H]2NC(=O)O[C@@]21C (stereo partly drawn) [Compound 52] | ≤ 4 µg/mL | 8 to 32 µg/mL (≈ 11.3 to 45.3 µM) | ≥ 32 µg/mL | ≥ 32 µg/mL | ≥ 32 µg/mL |  |
| CC[C@H]1OC(=O)C(C)C(=O)[C@H](C)[C@@H](O[C@@H]2O[C@H](CNC3CC3)CC(N(C)C)[C@H]2O)[C@](C)(OC)C[C@@H](C)CN(C)[C@H](C)[C@H]2NC(=O)O[C@@]21C (stereo partly drawn) [Compound 161, 3-Descladinosyl-3-oxo-6-O-methyl-11,12-dideoxy-12,11-(oxycarbonylimino)-6′-cyclopropylamino Azithromycin] | ≤ 4 µg/mL | ≤ 4 µg/mL | 8 to 32 µg/mL (≈ 11.7 to 46.9 µM) | 8 to 32 µg/mL (≈ 11.7 to 46.9 µM) | ≥ 32 µg/mL |  |
| CC[C@H]1OC(=O)[C@]2(C)CCOC(C)(C[C@@H](C)CN[C@H](C)[C@H]3NC(=O)O[C@@]31C)[C@H](O[C@@H]1O[C@H](CNC34CC(C3)C4)C[C@H](N(C)C)[C@H]1O)[C@@H](C)C2=O [Compound 212] | ≤ 4 µg/mL | 8 to 32 µg/mL (≈ 11.3 to 45.3 µM) |  | 8 to 32 µg/mL (≈ 11.3 to 45.3 µM) | ≥ 32 µg/mL | +++ (values less than or equal to 4 mg/L) |
| CC[C@H]1OC(=O)[C@@](C)(F)C(=O)[C@H](C)[C@@H](O[C@@H]2OC(CNCc3ccc(-c4cncnc4)cc3)CC(N(C)C)C2O)[C@](C)(OC)C[C@@H](C)C(=O)[C@H](C)[C@H]2NC(=O)O[C@@]21C (stereo partly drawn) [Compound 92] | ≥ 32 µg/mL | ≥ 32 µg/mL | ≤ 4 µg/mL | ≥ 32 µg/mL | ≥ 32 µg/mL |  |
| CC[C@H]1OC(=O)[C@@]2(C)CCOC(C)(C[C@@H](C)CN(C)[C@H](C)[C@H]3NC(=O)O[C@@]31C)[C@H](O[C@@H]1OC(CNC(C)C)CC(N(C)C)C1O)[C@@H](C)C2=O (stereo partly drawn) [Compound 214] | ≤ 4 µg/mL | ≤ 4 µg/mL | ≤ 4 µg/mL | ≥ 32 µg/mL | ≥ 32 µg/mL |  |
| CC[C@H]1OC(=O)C(C)C(=O)[C@H](C)[C@@H](O[C@@H]2OC(CNc3ccc(F)cc3)CC(N(C)C)C2O)[C@](C)(OC)C[C@@H](C)CN[C@H](C)[C@H]2NC(=O)O[C@@]21C (stereo partly drawn) [Compound 46] | ≤ 4 µg/mL | 8 to 32 µg/mL (≈ 11.1 to 44.3 µM) | 8 to 32 µg/mL (≈ 11.1 to 44.3 µM) | ≥ 32 µg/mL | ≥ 32 µg/mL |  |
| CC[C@H]1OC(=O)C(C)C(=O)[C@H](C)[C@@H](OC2OC(CN3CCN(C(C)=O)CC3)CC(N(C)C)C2O)[C@](C)(OC)C[C@@H](C)CN[C@H](C)[C@H]2NC(=O)O[C@@]21C (stereo partly drawn) [Compound 125, 3-Descladinosyl-3-oxo-6-O-methyl-N9a-desmethyl-11,12-dideoxy-12,11-(oxycarbonylimino)-6′-(1-(4-acetyl)-piperazinyl) Azithromycin] | ≥ 32 µg/mL | ≥ 32 µg/mL | ≥ 32 µg/mL | ≥ 32 µg/mL | ≥ 32 µg/mL |  |

Now from value to compound, other results behind:

| MIC [1] | MIC [2] | MIC [3] | MIC [4] | MIC [5] | SMILES | MIC against S. aureus (MP-12) ([3]; strain MP-12) |
| --- | --- | --- | --- | --- | --- | --- |
| ≤ 4 µg/mL | ≥ 32 µg/mL | ≥ 32 µg/mL | ≥ 32 µg/mL | ≥ 32 µg/mL | CC[C@H]1OC(=O)C(C)C(=O)[C@H](C)[C@@H](O[C@@H]2O[C@H](CN(C)C(=O)CN(C)C)CC(N(C)C)[C@H]2O)[C@](C)(OC)C[C@@H](C)CN[C@H](C)[C@H]2NC(=O)O[C@@]21C (stereo partly drawn) [Compound 171, 3-Descladinosyl-3-oxo-6-O-methyl-N9a-desmethyl-11,12-dideoxy-12,11-(oxycarbonylimino)-6′-N-methyl-2″-dimethylamino-acetamide Azithromycin] |  |
| ≤ 4 µg/mL | 8 to 32 µg/mL (≈ 11.6 to 46.6 µM) | 8 to 32 µg/mL (≈ 11.6 to 46.6 µM) | ≥ 32 µg/mL | ≥ 32 µg/mL | CC[C@H]1OC(=O)C(C)C(=O)[C@H](C)[C@@H](OC2OC(CN3CC(F)C3)CC(N(C)C)C2O)[C@](C)(OC)C[C@@H](C)CN[C@H](C)[C@H]2NC(=O)O[C@@]21C (stereo partly drawn) [Compound 143, 3-Descladinosyl-3-oxo-6-O-methyl-N9a-desmethyl-11,12-dideoxy-12,11-(oxycarbonylimino)-6′-(3″-fluoroazetidin-1″-yl) Azithromycin] |  |
| ≤ 4 µg/mL | ≥ 32 µg/mL | ≥ 32 µg/mL | ≥ 32 µg/mL | ≥ 32 µg/mL | CC[C@H]1OC(=O)C(C)C(=O)[C@H](C)[C@@H](OC2OC(CNCC(N)=O)CC(N(C)C)C2O)[C@](C)(OC)C[C@@H](C)CN[C@H](C)[C@H]2NC(=O)O[C@@]21C (stereo partly drawn) [Compound 116, 3-Descladinosyl-3-oxo-6-O-methyl-N9a-desmethyl-11,12-dideoxy-12,11-(oxycarbonylimino)-6′-(N-acetamidylamino) Azithromycin] |  |
| ≤ 4 µg/mL | 8 to 32 µg/mL (≈ 10.9 to 43.7 µM) | 8 to 32 µg/mL (≈ 10.9 to 43.7 µM) | 8 to 32 µg/mL (≈ 10.9 to 43.7 µM) | ≥ 32 µg/mL | CC[C@H]1OC(=O)C(C)C(=O)[C@H](C)[C@@H](OC2OC(CN3CCC(F)(F)CC3)CC(N(C)C)C2O)[C@](C)(OC)C[C@@H](C)CN[C@H](C)[C@H]2NC(=O)O[C@@]21C (stereo partly drawn) [Compound 144, 3-Descladinosyl-3-oxo-6-O-methyl-N9a-desmethyl-11,12-dideoxy-12,11-(oxycarbonylimino)-6′-(4″,4″-difluoropiperidin-1″-yl) Azithromycin] |  |
| ≤ 4 µg/mL | 8 to 32 µg/mL (≈ 11.3 to 45.3 µM) | ≥ 32 µg/mL | ≥ 32 µg/mL | ≥ 32 µg/mL | CC[C@H]1OC(=O)C(C)C(=O)[C@H](C)[C@@H](O[C@@H]2OC(CNc3ccccn3)CC(N(C)C)C2O)[C@](C)(OC)C[C@@H](C)CN[C@H](C)[C@H]2NC(=O)O[C@@]21C (stereo partly drawn) [Compound 51] |  |
| ≥ 32 µg/mL | ≥ 32 µg/mL | 8 to 32 µg/mL (≈ 11.3 to 45.1 µM) | 8 to 32 µg/mL (≈ 11.3 to 45.1 µM) | ≥ 32 µg/mL | CC[C@H]1OC(=O)C(C)C(=O)[C@H](C)[C@@H](OC2OC(CN(C)C34CC(C3)C4)CC(N(C)C)C2O)[C@](C)(OC)C[C@@H](C)CN[C@H](C)[C@H]2NC(=O)O[C@@]21C (stereo partly drawn) [Compound 152, 3-Descladinosyl-3-oxo-6-O-methyl-N9a-desmethyl-11,12-dideoxy-12,11-(oxycarbonylimino)-6′-bicyclo[1.1.1]pentanylmethylamino Azithromycin] |  |
| ≥ 32 µg/mL | ≥ 32 µg/mL | ≥ 32 µg/mL | ≥ 32 µg/mL | ≥ 32 µg/mL | CC[C@H]1OC(=O)C(C)C(=O)[C@H](C)[C@@H](O[C@@H]2O[C@H](C(=O)O)CC(N(C)C)[C@H]2O)[C@](C)(OC)C[C@@H](C)CN[C@H](C)[C@H]2NC(=O)O[C@@]21C (stereo partly drawn) [Compound 193] |  |
| ≤ 4 µg/mL | 8 to 32 µg/mL (≈ 11.9 to 47.7 µM) | ≥ 32 µg/mL | ≥ 32 µg/mL | ≥ 32 µg/mL | CC[C@H]1OC(=O)C(C)C(=O)[C@H](C)[C@@H](O[C@@H]2O[C@H]([C@H](C)N(C)C)CC(N(C)C)[C@H]2O)[C@](C)(OC)C[C@@H](C)CN[C@H](C)[C@H]2NC(=O)O[C@@]21C (stereo partly drawn) [Compound 175, 3-Descladinosyl-3-oxo-6-O-methyl-N9a-desmethyl-11,12-dideoxy-12,11-(oxycarbonylimino)-6′-((S)-(dimethylamino)ethyl) Azithromycin] |  |
| ≥ 32 µg/mL | ≥ 32 µg/mL | ≥ 32 µg/mL | ≥ 32 µg/mL | ≥ 32 µg/mL | CC[C@H]1OC(=O)C(C)C(=O)[C@H](C)[C@@H](O[C@@H]2O[C@H](CN(C)C(=O)CNC)CC(N(C)C)[C@H]2O)[C@](C)(OC)C[C@@H](C)CN[C@H](C)[C@H]2NC(=O)O[C@@]21C (stereo partly drawn) [Compound 173, 3-Descladinosyl-3-oxo-6-O-methyl-N9a-desmethyl-11,12-dideoxy-12,11-(oxycarbonylimino)-6′-N-methyl-2″-methylamino-acetamide Azithromycin] |  |
| ≤ 4 µg/mL | 8 to 32 µg/mL (≈ 12.2 to 48.8 µM) | ≤ 4 µg/mL | 8 to 32 µg/mL (≈ 12.2 to 48.8 µM) | ≥ 32 µg/mL | CC[C@H]1OC(=O)C(C)C(=O)[C@H](C)[C@@H](O[C@@H]2O[C@H](CC(C)C)CC(N(C)C)[C@H]2O)[C@](C)(OC)C[C@@H](C)CN[C@H](C)[C@H]2NC(=O)O[C@@]21C (stereo partly drawn) [Compound 184, 3-Desdadinosyl-3-oxo-6-O-methyl-N9a-desmethyl-11,12-dideoxy-12,11-(oxycarbonylimino)-6′-isopropyl Azithromycin] |  |
| ≤ 4 µg/mL | 8 to 32 µg/mL (≈ 11.5 to 46.2 µM) | 8 to 32 µg/mL (≈ 11.5 to 46.2 µM) | ≥ 32 µg/mL | ≥ 32 µg/mL | CC[C@H]1OC(=O)C(C)C(=O)[C@H](C)[C@@H](OC2OC(CNCC(F)F)CC(N(C)C)C2O)[C@](C)(OC)C[C@@H](C)CN[C@H](C)[C@H]2NC(=O)O[C@@]21C (stereo partly drawn) [Compound 136, 3-Descladinosyl-3-oxo-6-O-methyl-N9a-desmethyl-11,12-dideoxy-12,11-(oxycarbonylimino)-6′-difluoroethylamino Azithromycin] |  |
